From article PMC8213057, “Targeting ALK2: An Open Science Approach to Developing Therapeutics for the Treatment of Diffuse Intrinsic Pontine Glioma” (Journal of Medicinal Chemistry, 2020)

Tests used:
[1] = biological target: T1, IKKb/IKBKB (Homo sapiens, UniProt O14920); assay: biochemical; settings: read-out: % enzyme activity, 1 μM; Run 1, Run 2
T1 sequence (O14920 1-756): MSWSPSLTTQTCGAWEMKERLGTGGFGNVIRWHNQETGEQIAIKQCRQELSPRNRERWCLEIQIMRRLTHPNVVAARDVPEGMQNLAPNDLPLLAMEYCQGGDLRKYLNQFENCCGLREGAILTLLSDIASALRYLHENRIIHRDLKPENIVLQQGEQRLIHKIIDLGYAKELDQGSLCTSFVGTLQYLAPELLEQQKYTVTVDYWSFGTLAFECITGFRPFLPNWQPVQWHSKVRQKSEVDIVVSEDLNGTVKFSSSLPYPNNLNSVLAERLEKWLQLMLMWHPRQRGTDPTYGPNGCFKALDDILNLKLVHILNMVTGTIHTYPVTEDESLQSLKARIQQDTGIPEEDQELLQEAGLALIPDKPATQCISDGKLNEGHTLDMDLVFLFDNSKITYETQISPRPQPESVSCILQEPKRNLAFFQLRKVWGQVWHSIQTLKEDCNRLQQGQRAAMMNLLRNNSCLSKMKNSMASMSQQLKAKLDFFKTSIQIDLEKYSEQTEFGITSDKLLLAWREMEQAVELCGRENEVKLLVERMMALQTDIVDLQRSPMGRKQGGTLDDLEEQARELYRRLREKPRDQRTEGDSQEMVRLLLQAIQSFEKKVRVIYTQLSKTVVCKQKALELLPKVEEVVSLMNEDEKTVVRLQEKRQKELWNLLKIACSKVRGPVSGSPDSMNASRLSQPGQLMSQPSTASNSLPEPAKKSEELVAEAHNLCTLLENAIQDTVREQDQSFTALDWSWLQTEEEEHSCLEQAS

[2] = biological target: JNK1 (Homo sapiens, UniProt P45983); settings: 1 μM; Run 1, Run 2
Sequence of JNK1 (P45983 whole entry): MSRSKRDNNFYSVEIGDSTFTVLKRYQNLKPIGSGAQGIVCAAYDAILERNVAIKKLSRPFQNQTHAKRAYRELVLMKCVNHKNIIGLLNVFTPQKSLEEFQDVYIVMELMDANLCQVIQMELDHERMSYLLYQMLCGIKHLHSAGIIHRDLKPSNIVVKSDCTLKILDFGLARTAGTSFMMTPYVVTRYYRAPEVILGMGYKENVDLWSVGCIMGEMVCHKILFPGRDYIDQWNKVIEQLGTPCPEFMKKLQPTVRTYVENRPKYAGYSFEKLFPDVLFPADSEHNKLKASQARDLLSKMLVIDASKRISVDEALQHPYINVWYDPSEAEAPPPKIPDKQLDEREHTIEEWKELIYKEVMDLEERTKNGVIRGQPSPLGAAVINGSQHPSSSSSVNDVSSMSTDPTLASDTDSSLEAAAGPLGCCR

[3] = biological target: T2, KHS/MAP4K5 (Homo sapiens, UniProt Q9Y4K4); assay: 375-member kinase panel; format: biochemical; settings: Run 1, Run 2; for % enzyme activity: 1 μM; for remaining activity at 1 µM: read-out: % enzyme activity, 1 μM
T2 construct: purchased Reaction Biology Corporation
T2 sequence (Q9Y4K4 whole entry): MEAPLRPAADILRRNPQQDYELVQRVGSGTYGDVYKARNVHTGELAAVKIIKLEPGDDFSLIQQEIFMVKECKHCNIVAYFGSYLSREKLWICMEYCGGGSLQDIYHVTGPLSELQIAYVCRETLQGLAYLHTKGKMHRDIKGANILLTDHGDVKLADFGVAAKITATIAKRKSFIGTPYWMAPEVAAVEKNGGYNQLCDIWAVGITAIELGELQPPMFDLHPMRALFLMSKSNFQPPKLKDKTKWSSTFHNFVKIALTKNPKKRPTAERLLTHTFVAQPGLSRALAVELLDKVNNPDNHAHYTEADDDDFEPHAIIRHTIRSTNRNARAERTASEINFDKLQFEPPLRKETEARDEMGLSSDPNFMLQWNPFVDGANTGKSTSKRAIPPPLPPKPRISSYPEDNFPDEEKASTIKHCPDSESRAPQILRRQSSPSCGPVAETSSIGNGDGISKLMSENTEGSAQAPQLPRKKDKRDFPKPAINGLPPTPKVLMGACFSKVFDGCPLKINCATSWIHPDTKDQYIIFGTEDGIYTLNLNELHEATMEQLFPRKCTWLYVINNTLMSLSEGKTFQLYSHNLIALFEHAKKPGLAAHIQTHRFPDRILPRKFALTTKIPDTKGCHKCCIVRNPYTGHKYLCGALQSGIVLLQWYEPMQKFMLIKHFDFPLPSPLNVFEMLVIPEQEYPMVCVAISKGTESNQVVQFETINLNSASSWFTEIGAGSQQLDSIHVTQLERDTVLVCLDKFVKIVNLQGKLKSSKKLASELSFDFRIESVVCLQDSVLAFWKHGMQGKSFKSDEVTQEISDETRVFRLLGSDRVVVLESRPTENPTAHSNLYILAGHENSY

[4] = biological target: MELK (Homo sapiens, UniProt Q14680); settings: 1 μM; Run 1, Run 2
Sequence of MELK (Q14680 whole entry): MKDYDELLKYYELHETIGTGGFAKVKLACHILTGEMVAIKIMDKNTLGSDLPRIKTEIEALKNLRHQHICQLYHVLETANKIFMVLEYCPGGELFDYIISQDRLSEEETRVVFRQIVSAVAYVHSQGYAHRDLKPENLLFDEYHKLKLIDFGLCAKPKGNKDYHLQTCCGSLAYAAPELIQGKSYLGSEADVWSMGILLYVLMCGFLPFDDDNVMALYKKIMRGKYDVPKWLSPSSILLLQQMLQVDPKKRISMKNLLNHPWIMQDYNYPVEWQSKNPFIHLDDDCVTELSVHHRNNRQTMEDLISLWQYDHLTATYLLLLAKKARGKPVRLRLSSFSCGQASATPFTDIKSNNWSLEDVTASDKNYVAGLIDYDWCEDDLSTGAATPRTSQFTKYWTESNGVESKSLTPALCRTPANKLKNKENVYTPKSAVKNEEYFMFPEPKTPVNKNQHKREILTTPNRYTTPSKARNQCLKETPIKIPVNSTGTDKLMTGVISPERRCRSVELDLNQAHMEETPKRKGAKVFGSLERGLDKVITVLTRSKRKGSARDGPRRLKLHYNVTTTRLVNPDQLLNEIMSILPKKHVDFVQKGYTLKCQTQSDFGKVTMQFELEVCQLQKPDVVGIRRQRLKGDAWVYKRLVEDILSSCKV

[5] = biological target: CDK7/cyclin H (Homo sapiens, UniProt P50613); settings: 1 μM; Run 1, Run 2
Sequence of CDK7/cyclin H (P50613 whole entry): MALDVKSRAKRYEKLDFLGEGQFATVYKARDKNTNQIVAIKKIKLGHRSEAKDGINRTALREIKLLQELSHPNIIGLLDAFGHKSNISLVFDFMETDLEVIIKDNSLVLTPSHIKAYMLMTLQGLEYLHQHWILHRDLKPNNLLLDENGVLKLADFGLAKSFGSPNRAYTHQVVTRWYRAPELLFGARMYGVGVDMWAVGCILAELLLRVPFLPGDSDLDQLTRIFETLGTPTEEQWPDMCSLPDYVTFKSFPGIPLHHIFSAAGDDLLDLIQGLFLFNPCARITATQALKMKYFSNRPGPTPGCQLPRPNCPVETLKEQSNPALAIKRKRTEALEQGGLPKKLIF
Sequence of CDK7/cyclin H (P51946 whole entry partner): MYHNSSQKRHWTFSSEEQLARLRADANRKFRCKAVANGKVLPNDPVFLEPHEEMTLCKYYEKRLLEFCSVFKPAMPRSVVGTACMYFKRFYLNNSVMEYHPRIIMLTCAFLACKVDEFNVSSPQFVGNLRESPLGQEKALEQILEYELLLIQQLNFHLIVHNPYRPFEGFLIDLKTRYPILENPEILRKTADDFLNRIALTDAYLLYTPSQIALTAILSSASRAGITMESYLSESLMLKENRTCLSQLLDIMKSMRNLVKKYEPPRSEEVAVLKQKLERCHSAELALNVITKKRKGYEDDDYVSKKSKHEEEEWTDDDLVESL
Sequence of CDK7/cyclin H (P51948 whole entry partner): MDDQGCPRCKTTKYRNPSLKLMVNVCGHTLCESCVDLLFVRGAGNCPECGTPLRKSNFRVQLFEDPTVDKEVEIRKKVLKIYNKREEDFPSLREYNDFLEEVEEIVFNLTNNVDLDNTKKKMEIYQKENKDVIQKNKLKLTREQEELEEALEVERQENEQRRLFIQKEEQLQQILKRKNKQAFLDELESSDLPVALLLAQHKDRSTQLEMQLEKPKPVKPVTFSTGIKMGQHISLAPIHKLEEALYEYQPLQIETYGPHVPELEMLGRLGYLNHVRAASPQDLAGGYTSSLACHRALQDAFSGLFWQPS

[6] = biological target: COT1/MAP3K8 (Homo sapiens, UniProt P41279); settings: 1 μM; Run 1, Run 2
Sequence of COT1/MAP3K8 (P41279 whole entry): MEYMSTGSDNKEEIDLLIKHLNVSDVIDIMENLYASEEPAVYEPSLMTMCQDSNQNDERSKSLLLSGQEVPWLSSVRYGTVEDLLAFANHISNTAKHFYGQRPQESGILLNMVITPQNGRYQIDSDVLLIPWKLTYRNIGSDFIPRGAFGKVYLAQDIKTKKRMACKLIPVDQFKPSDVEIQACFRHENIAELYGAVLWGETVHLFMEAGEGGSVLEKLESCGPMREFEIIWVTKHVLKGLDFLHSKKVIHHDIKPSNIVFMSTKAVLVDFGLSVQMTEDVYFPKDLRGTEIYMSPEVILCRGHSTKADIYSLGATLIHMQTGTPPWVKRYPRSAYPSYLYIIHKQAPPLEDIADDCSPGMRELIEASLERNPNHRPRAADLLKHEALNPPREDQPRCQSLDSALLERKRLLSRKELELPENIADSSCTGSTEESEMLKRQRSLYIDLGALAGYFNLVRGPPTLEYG

[7] = biological target: ABL1 (Homo sapiens, UniProt P00519); assay: biochemical; settings: read-out: % enzyme activity, 1 μM; Run 1, Run 2
Sequence of ABL1 (P00519 whole entry): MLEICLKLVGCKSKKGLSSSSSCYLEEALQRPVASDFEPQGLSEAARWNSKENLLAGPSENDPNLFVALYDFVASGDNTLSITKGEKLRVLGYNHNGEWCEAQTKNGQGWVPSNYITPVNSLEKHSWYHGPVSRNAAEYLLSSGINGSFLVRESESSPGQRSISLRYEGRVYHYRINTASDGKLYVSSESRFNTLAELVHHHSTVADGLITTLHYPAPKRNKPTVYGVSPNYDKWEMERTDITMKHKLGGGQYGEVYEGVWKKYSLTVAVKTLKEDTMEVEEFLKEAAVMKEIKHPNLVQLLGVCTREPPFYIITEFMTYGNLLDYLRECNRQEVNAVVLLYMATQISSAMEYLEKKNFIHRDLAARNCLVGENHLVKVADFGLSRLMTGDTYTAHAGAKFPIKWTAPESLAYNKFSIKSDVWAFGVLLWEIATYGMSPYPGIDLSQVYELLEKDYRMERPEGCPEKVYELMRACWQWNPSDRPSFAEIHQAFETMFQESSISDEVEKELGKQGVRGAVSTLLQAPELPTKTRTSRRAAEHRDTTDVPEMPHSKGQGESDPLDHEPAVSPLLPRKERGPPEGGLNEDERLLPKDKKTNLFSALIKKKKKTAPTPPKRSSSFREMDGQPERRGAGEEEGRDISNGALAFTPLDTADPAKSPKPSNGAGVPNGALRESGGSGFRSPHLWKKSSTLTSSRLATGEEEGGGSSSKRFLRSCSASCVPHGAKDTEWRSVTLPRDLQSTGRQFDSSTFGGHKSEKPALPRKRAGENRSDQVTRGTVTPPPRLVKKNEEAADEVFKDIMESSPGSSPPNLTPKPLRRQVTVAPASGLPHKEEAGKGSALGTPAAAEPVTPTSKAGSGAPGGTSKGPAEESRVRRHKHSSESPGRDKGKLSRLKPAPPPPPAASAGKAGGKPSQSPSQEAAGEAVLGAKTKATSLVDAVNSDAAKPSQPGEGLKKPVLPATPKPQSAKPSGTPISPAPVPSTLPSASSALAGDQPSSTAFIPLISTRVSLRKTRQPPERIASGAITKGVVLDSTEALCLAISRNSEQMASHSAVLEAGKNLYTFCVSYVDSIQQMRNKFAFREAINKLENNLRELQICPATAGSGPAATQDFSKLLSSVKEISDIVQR

[8] = biological target: T3, MKK6 (Homo sapiens, UniProt P52564); assay: biochemical; settings: read-out: % enzyme activity, 1 μM; Run 1, Run 2
T3 sequence (P52564 1-334): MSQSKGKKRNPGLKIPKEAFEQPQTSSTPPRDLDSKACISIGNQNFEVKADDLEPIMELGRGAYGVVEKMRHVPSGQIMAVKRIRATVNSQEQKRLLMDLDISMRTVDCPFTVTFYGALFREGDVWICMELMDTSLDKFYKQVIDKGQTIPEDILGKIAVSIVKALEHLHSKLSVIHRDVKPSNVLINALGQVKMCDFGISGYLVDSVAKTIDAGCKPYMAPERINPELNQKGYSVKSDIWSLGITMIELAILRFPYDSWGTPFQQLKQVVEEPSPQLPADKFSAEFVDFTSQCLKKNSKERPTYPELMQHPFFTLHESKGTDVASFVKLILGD

[9] = biological target: PEAK1 (Homo sapiens, UniProt Q9H792); assay: biochemical; settings: read-out: % enzyme activity, 1 μM; Run 1, Run 2
[10] = biological target: T4, MUSK (Homo sapiens, UniProt O15146); assay: biochemical; settings: read-out: % enzyme activity, 1 μM; Run 1, Run 2
T4 sequence (O15146 24-869): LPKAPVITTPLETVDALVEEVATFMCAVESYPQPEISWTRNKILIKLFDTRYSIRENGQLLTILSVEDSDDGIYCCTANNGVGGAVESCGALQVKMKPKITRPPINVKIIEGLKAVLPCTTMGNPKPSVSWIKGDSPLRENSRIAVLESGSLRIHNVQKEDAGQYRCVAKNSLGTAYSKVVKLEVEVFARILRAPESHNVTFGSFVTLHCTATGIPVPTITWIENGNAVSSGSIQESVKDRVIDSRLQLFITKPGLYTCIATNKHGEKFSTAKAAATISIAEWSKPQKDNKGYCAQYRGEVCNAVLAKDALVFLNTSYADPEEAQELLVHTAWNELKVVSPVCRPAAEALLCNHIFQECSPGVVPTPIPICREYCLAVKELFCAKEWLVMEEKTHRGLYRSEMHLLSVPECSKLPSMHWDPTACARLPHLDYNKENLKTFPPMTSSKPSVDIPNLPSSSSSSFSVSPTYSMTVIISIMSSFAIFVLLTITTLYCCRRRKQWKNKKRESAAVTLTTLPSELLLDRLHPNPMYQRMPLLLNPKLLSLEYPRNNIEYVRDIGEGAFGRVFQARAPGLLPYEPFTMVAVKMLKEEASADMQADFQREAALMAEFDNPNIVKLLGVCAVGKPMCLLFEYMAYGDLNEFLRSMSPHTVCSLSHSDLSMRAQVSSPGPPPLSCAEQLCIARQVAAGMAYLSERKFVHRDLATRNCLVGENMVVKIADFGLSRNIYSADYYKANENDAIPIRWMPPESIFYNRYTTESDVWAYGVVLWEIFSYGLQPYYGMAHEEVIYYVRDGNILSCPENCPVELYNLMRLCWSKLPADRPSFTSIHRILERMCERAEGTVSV

[11] = biological target: SLK/STK2 (Homo sapiens, UniProt Q9H2G2); settings: 1 μM; Run 1, Run 2

| Structure (SMILES) | remaining activity at 1 µM [1] [%] | % enzyme activity [2] [%] | % enzyme activity [3] [%] | remaining activity at 1 µM [3] [%] | % enzyme activity [4] [%] | % enzyme activity [5] [%] | % enzyme activity [6] [%] | remaining activity at 1 µM [7] [%] | remaining activity at 1 µM [8] [%] | remaining activity at 1 µM [9] [%] | remaining activity at 1 µM [10] [%] | % enzyme activity [11] [%] |
| --- | --- | --- | --- | --- | --- | --- | --- | --- | --- | --- | --- | --- |
| COc1cc(-c2cncc(-c3ccc(N4CCN(C)CC4)cc3)c2C)cc(F)c1C(N)=O [Compound 26a, 2-Fluoro-6-methoxy-4-(4-methyl-5-(4-(4-methylpiperazin-1-yl)phenyl)pyridin-3-yl)benzamide] | 104 | 88.65 | 39.28 | 39.7 | 98.82 | 93.27 | 90.60 | 75.2 | 84.4 | 99.1 | 92.8 | 96.16 |
| COc1cc(-c2cncc(-c3ccc(N4C[C@@H](C)N(C)[C@@H](C)C4)cc3)c2C)cc(F)c1C(N)=O [Compound 26c, 2-Fluoro-6-methoxy-4-(4-methyl-5-(4-((3R,5S)-3,4,5-trimethylpiperazin-1-yl)phenyl)pyridin-3-yl)benzamide] | 101 | 85.74 | 40.60 | 41.7 | 99.30 | 95.50 | 93.89 | 83.9 | 79.7 | 96.6 | 92.2 | 100.64 |
